From US20040116420A1 (priority 2001, published 2004)
pIC50: −log10 of the molar value.

What was measured:
[1] = target: T1, HSV-1 protease (Human herpesvirus 1, UniProt P10210); test: Enzymatic assay for HSV-1 protease (assembly) inhibitor, fluorescence polarization; type: biochemical; conditions: read-out: HSV-1 Enzyme inhibition IC50
T1 construct: 6xHis (N); made in house; host or cells: baculovirus expression system
In short: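 Fluorescence polarization read-out: after avidin stop, cleavage of a biotinylated DTAF-labelled release-site peptide by recombinant N-His6 HSV-1 protease was compared with no-inhibitor wells. Enzyme and compound were preincubated 30 min, then substrate reacted 60 min, all at room temperature, pH 7.4 citrate buffer with TCEP.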

[2] = test system: Vero cells; test: Cytotoxicity, Vero cells, Alamar Blue; type: cell-based; conditions: 25 μM, 20 hours
In short: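 Living-cell ratio versus untreated control was read by Alamar Blue absorbance after about 6 h of dye incubation. Before that, Vero cells had received 25 μM test compound in 2% FBS-DMEM for 20 hours at 37 °C under 5% CO2.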

[3] = test system: HSV-1; test: Antiviral activity, HSV-1 in Vero cells, plaque method; type: cell-based; conditions: Human alphaherpesvirus 1, 20 hours, 90% inhibition of plaque formation
In short: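 This is a virus-yield read-out. The culture medium was frozen at −80° C and thawed, and the plaques it formed were counted. It came from Vero monolayers infected with 50,000 pfu HSV-1 and then exposed to the compound for 20 h at 37° C. EC90 is the concentration inhibiting 90% of plaque formation relative to the untreated infected control.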

T1 sequence (P10210 1-247): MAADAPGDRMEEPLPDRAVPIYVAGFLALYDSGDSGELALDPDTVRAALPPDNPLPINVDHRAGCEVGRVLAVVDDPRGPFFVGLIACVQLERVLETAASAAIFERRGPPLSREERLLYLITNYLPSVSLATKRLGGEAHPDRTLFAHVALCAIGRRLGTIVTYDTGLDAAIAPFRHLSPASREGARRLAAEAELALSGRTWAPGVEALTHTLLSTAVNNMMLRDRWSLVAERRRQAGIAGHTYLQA

SMILES	pIC50 [1]	EC90 [3] [µM]	Cell viability (% of control) [2] [%]
Cc1cc(C(=O)Nc2ccc3nc(NC(C)(C)C(=O)N(C)CCc4ccccn4)oc(=O)c3c2C)c(C(F)(F)F)o1 [Compound No.175, 5-Methyl-2-trifluoromethyl-furan-3-carboxylic acid (5-methyl-2-{1-methyl-1-[methyl-(2-pyridin-2-yl-ethyl)-carbamoyl]-ethylamino}-4-oxo-4H-benzo [d][1,3]oxazin-6-yl)-amide]	5.60	> 12.5	99.4
Cc1c(NC(=O)OC(C)(C)C)ccc2nc(N3C[C@H](OCc4ccccc4)C[C@H]3C(=O)NCc3ccncc3)oc(=O)c12 [Compound No.111, (2-{4R-Benzyloxy-2S-[(pyridin-4-ylmethyl)-carbamoyl]-pyrrolidin-1-yl}-5-methyl-4-oxo-4H-benzo[d][1,3]oxazin-6-yl)-carbamic acid tert-butyl ester]	5.48	7.8	80.4
COc1ccccc1C(=O)Nc1ccc2nc(NC(C)(C)C(=O)N(C)CCc3ccccn3)oc(=O)c2c1C [Compound No.161, 2-Methoxy-N-(5-methyl-2-{1-methyl-1-[methyl-(2-pyridin-2-yl-ethyl)-carbamoyl]-ethylamino}-4-oxo-4H-benzo[d][1,3]oxazin-6-yl)-benzamide]	5.55	11.4	44.1
Cc1c(NC(=O)OC(C)(C)C)ccc2nc(N3Cc4ccccc4C[C@H]3C(=O)NCCc3ccccn3)oc(=O)c12 [Compound No.97, {5-Methyl-4-oxo-2-[3S-(2-pyridin-2-yl-ethylcarbamoyl)-3,4-dihydro-1H-isoquinolin-2-yl]-4H-benzo[d][1,3]oxazin-6-yl}-carbamic acid tert-butyl ester]	5.48	11	51.3
Cc1c(NC(=O)OC(C)(C)C)ccc2nc(N[C@H](C(=O)N(C)CCc3ccncc3)C(C)(C)C)oc(=O)c12 [Compound No.52, (2-{2,2-Dimethyl-1S-[methyl-(2-pyridin-4-yl-ethyl)-carbamoyl]-propylamino}-5-methyl-4-oxo-4H-benzo[d][1,3]oxazin-6-yl)-carbamic acid tert-butyl ester]	4.31	6	64.5
Cc1c(NC(=O)OC(C)(C)C)ccc2nc(N3CCC[C@H]3C(=O)N(C)CCc3ccncc3)oc(=O)c12 [Compound No.93, (5-Methyl-2-{2S-[methyl-(2-pyridin-4-yl-ethyl)-carbamoyl]-pyrrolidin-1-yl}-4-oxo-4H-benzo[d][1,3]oxazin-6-yl)-carbamic acid tert-butyl ester]	< 4.70	> 12.5	82.4
Cc1c(NC(=O)OC(C)(C)C)ccc2nc(N(C)[C@@H](Cc3ccccc3)C(=O)N(C)CCc3ccncc3)oc(=O)c12 [Compound No.85, [5-Methyl-2-(methyl-{1S-[methyl-(2-pyridin-4-yl-ethyl)-carbamoyl]-2-phenyl-ethyl}-amino)-4-oxo-4H-benzo[d][1,3]oxazin-6-yl]-carbamic acid tert-butyl ester]	5.64	11.7	60.7
Cc1c(NC(=O)OC(C)(C)C)ccc2nc(N[C@@H](CC3CCCCC3)C(=O)N(C)CCc3cccnc3)oc(=O)c12 [Compound No.69, (2-{2-Cyclohexyl-1S-[methyl-(2-pyridin-3-yl-ethyl)-carbamoyl]-ethylamino}-5-methyl-4-oxo-4H-benzo[d][1,3]oxazin-6-yl)-carbamic acid tert-butyl ester]	5.44	< 3.2	49.5
Cc1c(NC(=O)c2ccccc2)ccc2nc(NC(C)(C)C(=O)N(C)CCc3ccccn3)oc(=O)c12 [Compound No.138, N-(5-Methyl-2-{1-methyl-1-[methyl-(2-pyridin-2-yl-ethyl)-carbamoyl]-ethylamino}-4-oxo-4H-benzo[d][1,3]oxazin-6-yl)-benzamide]	5.55	> 12.5	84.4

Stronger by pIC50 [1], values ahead:

pIC50 [1]	EC90 [3] [µM]	SMILES	Cell viability (% of control) [2] [%]
5.68	12.1	Cc1c(NC(=O)COCc2ccccc2)ccc2nc(NC(C)(C)C(=O)N(C)CCc3ccccn3)oc(=O)c12 [Compound No.184, 2-[6-(2-Benzyloxy-acetylamino)-5-methyl-4-oxo-4H-benzo[d][1,3]oxazin-2-ylamino]-2,N-dimethyl-N-(2-pyridin-2-yl-ethyl)-propionamide]	93.1
5.74	6.2	Cc1c(NC(=O)OC(C)(C)C)ccc2nc(N[C@@H](CC(C)C)C(=O)N(C)CCc3ccncc3)oc(=O)c12 [Compound No.54, (5-Methyl-2-{3-methyl-1S-[methyl-(2-pyridin-4-yl-ethyl)-carbamoyl]-butylamino}-4-oxo-4H-benzo[d][1,3]oxazin-6-yl)-carbamic acid tert-butyl ester]	62.8
5.74	10.9	Cc1c(NC(=O)c2cc(Cl)sc2Cl)ccc2nc(NC(C)(C)C(=O)N(C)CCc3ccccn3)oc(=O)c12 [Compound No.181, 2,5-Dichloro-thiophene-3-carboxylic acid (5-methyl-2-{1-methyl-1-[methyl-(2-pyridin-2-yl-ethyl)-carbamoyl]-ethylamino}-4-oxo-4H-benzo[d][1,3]oxazin-6-yl)-amide]	44.3
5.77	9.5	Cc1c(NC(=O)OC(C)(C)C)ccc2nc(N(C)[C@@H](Cc3ccccc3)C(=O)NCCc3ccccn3)oc(=O)c12 [Compound No.81, (5-Methyl-2-{methyl-[2-phenyl-1S-(2-pyridin-2-yl-ethylcarbamoyl)-ethyl]-amino}-4-oxo-4H-benzo[d][1,3]oxazin-6-yl)-carbamic acid tert-butyl ester]	49.7
5.82	10.3	Cc1c(NC(=O)c2cccc(F)c2)ccc2nc(NC(C)(C)C(=O)N(C)CCc3ccccn3)oc(=O)c12 [Compound No.148, 3-Fluoro-N-(5-methyl-2-{1-methyl-1-[methyl-(2-pyridin-2-yl-ethyl)-carbamoyl]-ethylamino}-4-oxo-4H-benzo[d][1,3]oxazin-6-yl)-benzamide]	54.6
5.85	6.2	CCOc1ccc(C(=O)Nc2ccc3nc(NC(C)(C)C(=O)N(C)CCc4ccccn4)oc(=O)c3c2C)cc1 [Compound No.164, 4-Ethoxy-N-(5-methyl-2-{1-methyl-1-[methyl-(2-pyridin-2-yl-ethyl)-carbamoyl]-ethylamino}-4-oxo-4H-benzo[d][1,3]oxazin-6-yl)-benzamide]	47.7
5.85	10.8	Cc1c(NC(=O)C=Cc2ccccc2)ccc2nc(NC(C)(C)C(=O)N(C)CCc3ccccn3)oc(=O)c12 [Compound No.159, N-(5-Methyl-2-{1-methyl-1-[methyl-(2-pyridin-2-yl-ethyl)-carbamoyl]-ethylamino}-4-oxo-4H-benzo[d][1,3]oxazin-6-yl)-3-phenyl-acrylamide]	15.9
6.00	3.5	Cc1c(NC(=O)c2ccccc2COC(=O)c2ccccc2)ccc2nc(NC(C)(C)C(=O)N(C)CCc3ccccn3)oc(=O)c12 [Compound No.186, Benzoic acid 2-(5-methyl-2-{1-methyl-1-[methyl-(2-pyridin-2-yl-ethyl)-carbamoyl]-ethylamino}-4-oxo-4H-benzo[d][1,3]oxazin-6-ylcarbamoyl)-benzyl ester]	18.1
6.05	5.9	Cc1c(NC(=O)OC(C)(C)C)ccc2nc(N(C)[C@@H](Cc3ccccc3)C(=O)NCc3ccncc3)oc(=O)c12 [Compound No.80, [5-Methyl-2-(methyl-{2-phenyl-1S-[(pyridin-4-ylmethyl)-carbamoyl]-ethyl}-amino)-4-oxo-4H-benzo[d][1,3]oxazin-6-yl]-carbamic acid tert-butyl ester]	48.0
6.05	5.8	Cc1c(NC(=O)c2sc3ccccc3c2Cl)ccc2nc(NC(C)(C)C(=O)N(C)CCc3ccccn3)oc(=O)c12 [Compound No.178, 3-Chloro-benzo[b]thiophene-2-carboxylic acid (5-methyl-2-{1-methyl-1-[methyl-(2-pyridin-2-yl-ethyl)-carbamoyl]-ethylamino}-4-oxo-4H-benzo[d][1,3]oxazin-6-yl)-amide]	28.1
6.05	< 3.2	Cc1c(NC(=O)OC(C)(C)C)ccc2nc(N[C@@H](CCc3ccccc3)C(=O)N(C)CCc3cccnc3)oc(=O)c12 [Compound No.70, (5-Methyl-2-{1S-[methyl-(2-pyridin-3-yl-ethyl)-carbamoyl]-3-phenyl-propylamino}-4-oxo-4H-benzo[d][1,3]oxazin-6-yl)-carbamic acid tert-butyl ester]	48.0
6.15	> 12.5	Cc1c(NC(=O)CCCNC(=O)c2ccccn2)ccc2nc(NC(C)(C)C(=O)N(C)CCc3ccccn3)oc(=O)c12 [Compound No.221, Pyridine-2-carboxylic acid [3-(5-methyl-2-{1-methyl-1-[methyl-(2-pyridin-2-yl-ethyl)-carbamoyl]-ethylamino}-4-oxo-4H-benzo[d][1,3]oxazin-6-ylcarbamoyl)-propyl]-amide]	105.3
